Activity calls are given as the source filed them. How the calls were made is not given here.
System: rodent carcinogenicity bioassays, tumor incidence
Experiment: CCRIS carcinogenicity studies
Settings: Dose: 0
Outline: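 NCI-built, expert-reviewed records of carcinogenicity and related test outcomes (mutagenicity, tumor promotion/inhibition) compiled from published and report sources, historical span 1985-2011, not updated.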

Oc1ccccc1-c1ccccc1
carcinogen call (Species: GUINEA PIG, Strain/Sex: HARTLEY/MALE, Route: ORAL, 2% IN DIET (STUDY DURATION: 48 WK)): inactive; negative
carcinogen call (Species: HAMSTER, Strain/Sex: SYRIAN/MALE, Route: ORAL, 2% IN DIET (STUDY DURATION: 48 WK)): inactive; negative
carcinogen call (Species: MOUSE, Strain/Sex: B6C3F1/FEMALE, Route: ORAL, 0.5, 1, 2% IN DIET FOR 96 WK (STUDY DURATION: 104 WK), 0.5, 1, 2% IN DIET FOR 96 WK (STUDY DURATION: 104 WK)): inactive; negative
carcinogen call (Species: MOUSE, Strain/Sex: B6C3F1/FEMALE, Route: ORAL, 0.5, 1, 2% IN THE DIET FOR 96 WK (STUDY DURATION: 104 WK), 0.5, 1, 2% IN THE DIET FOR 96 WK (STUDY DURATION: 104 WK)): inactive; negative
carcinogen call (Species: MOUSE, Strain/Sex: B6C3F1/MALE, Route: ORAL, 0.5, 1, 2% IN DIET FOR 96 WK (STUDY DURATION: 104 WK), 0.5, 1, 2% IN DIET FOR 96 WK (STUDY DURATION: 104 WK)): inactive; negative
carcinogen call (Species: MOUSE, Strain/Sex: B6C3F1/MALE, Route: ORAL, 0.5, 1, 2% IN THE DIET FOR 96 WK (STUDY DURATION: 104 WK), 0.5, 1, 2% IN THE DIET FOR 96 WK (STUDY DURATION: 104 WK)): inactive; negative
carcinogen call (Species: MOUSE, Strain/Sex: B6C3F1/MALE, Route: ORAL, 2% IN DIET (STUDY DURATION: 48 WK)): inactive; negative
carcinogen call (Species: MOUSE, Strain/Sex: CD-1/FEMALE, Route: DERMAL, 55.5 MG/ANIMAL IN 0.1 ML ACETONE 3 D/WK FOR 102 WK): inactive; negative
carcinogen call (Species: MOUSE, Strain/Sex: CD-1/MALE, Route: DERMAL, 55.5 MG/ANIMAL IN 0.1 ML ACETONE 3 D/WK FOR 102 WK): inactive; negative
carcinogen call (Species: RAT, Strain/Sex: F344/MALE, Route: ORAL, 0.125, 0.25, 0.5, 1.0, 2.0, 4.0% IN DIET FOR 91 WK, 0.125, 0.25, 0.5, 1.0, 2.0, 4.0% IN DIET FOR 91 WK, Tumor Site: Type of Lesion: KIDNEY: TRANSITIONAL CELL CARCINOMA, URINARY BLADDER: TRANSITIONAL CELL CARCINOMA): active; positive
carcinogen call (Species: RAT, Strain/Sex: F344/MALE, Route: ORAL, 0.625, 1.25, 2.5% IN PELLET DIET FOR STUDY DURATION (STUDY DURATION: 91 WK), 0.625, 1.25, 2.5% IN PELLET DIET FOR STUDY DURATION (STUDY DURATION: 91 WK), Tumor Site: Type of Lesion: BLADDER: TRANSITIONAL CELL PAPILLOMA, TRANSITIONAL CELL CARCINOMA): active; positive
carcinogen call (Species: RAT, Strain/Sex: F344/MALE, Route: ORAL, 2% IN DIET (STUDY DURATION: 48 WK)): inactive; negative
carcinogen call (Species: RAT, Strain/Sex: F344/MALE, Route: ORAL, 2% IN DIET FOR 104 WK (STUDY DURATION: 104 WK), Tumor Site: Type of Lesion: BLADDER: CARCINOMA): active; positive

CC1=C[C@H]2O[C@@H]3[C@H](O)[C@@H](O)[C@](C)([C@@]2(CO)[C@H](O)C1=O)[C@]31CO1
carcinogen call (Species: MOUSE, Strain/Sex: C57BL/6CRSLC/FEMALE, Route: ORAL, 6, 12, 30 PPM IN DIET FOR 104 WK (STUDY DURATION: 104 WK), 6, 12, 30 PPM IN DIET FOR 104 WK (STUDY DURATION: 104 WK)): inactive; negative

O[C@H]1[C@@H]2O[C@@H]2c2c(ccc3cc4ccc5ccccc5c4nc23)[C@@H]1O
carcinogen call (Species: MOUSE, Strain/Sex: CD-1/FEMALE, Route: INTRAPERITONEAL, 175 NMOL (TOTAL DOSE) ADMINISTERED AS 1/7 OF DOSE WITHIN 24 HR AFTER BIRTH, 2/7 OF DOSE AT 8 D OLD, 4/7 OF DOSE AT 15, Tumor Site: Type of Lesion: LUNG: TUMOR): active; positive
carcinogen call (Species: MOUSE, Strain/Sex: CD-1/MALE, Route: INTRAPERITONEAL, 175 NMOL (TOTAL DOSE) ADMINISTERED AS 1/7 OF DOSE WITHIN 24 HR AFTER BIRTH, 2/7 OF DOSE AT 8 D OLD, 4/7 OF DOSE AT 15, Tumor Site: Type of Lesion: LIVER: TUMOR): active; positive

Reference: PubChem BioAssay AID1259411 (Chemical Carcinogenesis Research Information System (CCRIS), 2018)
